Data from patent US8512709B2, “Modified amyloid β peptide” (The Chemo-Sero-Therapeutic Research Institue, priority 2008, dated 2013).

Tested on: Aβ peptide (1-40 amino acid sequence)
Test: Anti-Aβ IgG antibody titer of murine serum after immunization with Aβ peptides (ELISA on immobilized Aβ 1-40)
Type: in vivo, C57BL/6 mice
Details: for Antibody titer Animal No. 1 / Antibody titer Animal No. 2 / Antibody titer Animal No. 3 / Antibody titer Animal No. 4: C57BL/6 mouse serum, Day 7 from final 3rd immunization; for Antibody titer Animal No. 1 / Antibody titer Animal No. 2 / Antibody titer Animal No. 3 / Antibody titer Animal No. 4 / Antibody titer Mean: 100 μg/mouse; for Antibody titer Mean: mean of 4 mice, serum Day 7 from final 3rd immunization
[1] = Example 7, result in words on Table 7
[2] = Example 2, result in words on Table 2

Sequence: DAEFRHDSGYEVHHQKLVCKGAIIGLMVGC [1-18Cys28-37AACys, Aβ residues 1-18, cysteine, Aβ residues 28-37, C-terminal cysteine]
- Antibody titer Animal No. 1 (Example 8): 1073 ng/mL
- Antibody titer Animal No. 2 (Example 8): 43 ng/mL
- Antibody titer Animal No. 3 (Example 8): 10 ng/mL
- Antibody titer Animal No. 4 (Example 8): 4864 ng/mL
- Antibody titer Mean (Example 8): 1497.5 ng/mL
- induction of an antibody to Aβ (Example 8, result in words on Table 8): observed

Sequence: DAEFRHDSGYEVHHQKLVCFFAEDVGS [1-18Cys19-26AA, 26-amino acid Aβ peptide wherein cysteine is inserted between residues Nos. 18 and 19]
- Antibody titer Animal No. 1 (Example 7): 127.5 ng/mL
- Antibody titer Animal No. 2 (Example 7): 7001 ng/mL
- Antibody titer Animal No. 3 (Example 7): 15779 ng/mL
- Antibody titer Animal No. 4 (Example 7): 164 ng/mL
- Antibody titer Mean (Example 7): 5767.9 ng/mL
- induction of an antibody to Aβ [1]: observed

Sequence: DAEFRHDSGYAIIGLMVGGVVIAC [1-10•30-42AACys, 1-10+30-42-amino acid Aβ peptide with addition of Cysteine]
- Antibody titer Animal No. 1 (Example 1): 9 ng/mL
- Antibody titer Animal No. 2 (Example 1): 7 ng/mL
- Antibody titer Animal No. 3 (Example 1): 11 ng/mL
- Antibody titer Animal No. 4 (Example 1): 8 ng/mL
- Antibody titer Mean (Example 1): 8.4 ng/mL

Sequence: DAEFRHDSGYKGAIIGLMVGC [1-10•28-37AACys, 1-10+28-37-amino acid Aβ peptide with addition of Cysteine]
- Antibody titer Animal No. 1 (Example 2): 79708 ng/mL
- Antibody titer Animal No. 2 (Example 2): 1531 ng/mL
- Antibody titer Animal No. 3 (Example 2): 24694 ng/mL
- Antibody titer Animal No. 4 (Example 2): 100619 ng/mL
- Antibody titer Mean (Example 2): 51638.0 ng/mL
- induction of an antibody to Aβ [2]: observed

Sequence: DAEFRHDKGAIIGLMVGC [1-7•28-37AACys, 1-7+28-37-amino acid Aβ peptide with addition of Cysteine]
- Antibody titer Animal No. 1 (Example 3): 26 ng/mL
- Antibody titer Animal No. 2 (Example 3): 27 ng/mL
- Antibody titer Animal No. 3 (Example 3): 34 ng/mL
- Antibody titer Animal No. 4 (Example 3): 15 ng/mL
- Antibody titer Mean (Example 3): 25.6 ng/mL

Sequence: DAEFRHDSGYEVHHQKLVCFFAEDVGSNK [1-18Cys19-28AA, 28-amino acid Aβ peptide wherein cysteine is inserted between residues Nos. 18 and 19]
- Antibody titer Animal No. 1 (Example 6): 448154 ng/mL
- Antibody titer Animal No. 2 (Example 6): 97146 ng/mL
- Antibody titer Animal No. 3 (Example 6): 233411 ng/mL
- Antibody titer Animal No. 4 (Example 6): 57794 ng/mL
- Antibody titer Mean (Example 6): 209126.3 ng/mL

Sequence: DAEFRHDSGYKGAIIGLMVGGVVIA [1-10•28-42AA, 1-10+28-42-amino acid Aβ peptide, without addition of cysteine, reference compound]
- Antibody titer Animal No. 1 (Example 1): 66 ng/mL
- Antibody titer Animal No. 2 (Example 1): 715 ng/mL
- Antibody titer Animal No. 3 (Example 1): 3559 ng/mL
- Antibody titer Animal No. 4 (Example 1): 13 ng/mL
- Antibody titer Mean (Example 1): 1088.5 ng/mL
- induction of an antibody to Aβ (Example 1, result in words on Table 1): observed

Sequence: DAEFRHDSGYEVHHQKLVKGAIIGLMVG [1-18•28-37AA, reference compound]
- Antibody titer Animal No. 1 (Example 8): 11 ng/mL
- Antibody titer Animal No. 2 (Example 8): 11 ng/mL
- Antibody titer Animal No. 3 (Example 8): 11 ng/mL
- Antibody titer Animal No. 4 (Example 8): 9 ng/mL
- Antibody titer Mean (Example 8): 10.5 ng/mL

Sequence: DAEFRHDSGYEVHHQKLVCFFAEDVGSN [1-18Cys19-27AA, 27-amino acid Aβ peptide wherein cysteine is inserted between residues Nos. 18 and 19]
- Antibody titer Animal No. 1 (Example 7): 2482 ng/mL
- Antibody titer Animal No. 2 (Example 7): 3125 ng/mL
- Antibody titer Animal No. 3 (Example 7): 2631 ng/mL
- Antibody titer Animal No. 4 (Example 7): 17.2 ng/mL
- Antibody titer Mean (Example 7): 2063.8 ng/mL
- induction of an antibody to Aβ [1]: observed

Sequence: DAEFRHDSGYEVHHQKLVKGAIIGLMVGGVVIAC [1-18•28-42AACys, 1-18+28-42-amino acid Aβ peptide with addition of Cysteine]
- Antibody titer Animal No. 1 (Example 5): 69336 ng/mL
- Antibody titer Animal No. 2 (Example 5): 41211 ng/mL
- Antibody titer Animal No. 3 (Example 5): 51611 ng/mL
- Antibody titer Animal No. 4 (Example 5): 7004 ng/mL
- Antibody titer Mean (Example 5): 42290.5 ng/mL

Sequence: DAEFRHDSGYKGAIIGLMVGGVC [1-10•28-39AACys, 1-10+28-39-amino acid Aβ peptide with addition of Cysteine]
- Antibody titer Animal No. 1 (Example 2): 139361 ng/mL
- Antibody titer Animal No. 2 (Example 2): 10808 ng/mL
- Antibody titer Animal No. 3 (Example 2): 13326 ng/mL
- Antibody titer Animal No. 4 (Example 2): 230453 ng/mL
- Antibody titer Mean (Example 2): 98487.0 ng/mL
- induction of an antibody to Aβ [2]: observed

Sequence: DAEFRHDSGYKGAIIGLMVGGVVC [1-10•28-40AACys, 1-10+28-40-amino acid Aβ peptide with addition of Cysteine]
- Antibody titer Animal No. 1 (Example 2): 4560 ng/mL
- Antibody titer Animal No. 2 (Example 2): 148622 ng/mL
- Antibody titer Animal No. 3 (Example 2): 5118 ng/mL
- Antibody titer Animal No. 4 (Example 2): 4988 ng/mL
- Antibody titer Mean (Example 2): 40822.0 ng/mL
- induction of an antibody to Aβ [2]: observed

Sequence: DAEFRHDSGYKGAIIGLMC [1-10•28-35AACys, 1-10+28-35-amino acid Aβ peptide with addition of Cysteine]
- Antibody titer Animal No. 1 (Example 2): 44 ng/mL
- Antibody titer Animal No. 2 (Example 2): 19 ng/mL
- Antibody titer Animal No. 3 (Example 2): 8361 ng/mL
- Antibody titer Animal No. 4 (Example 2): 220 ng/mL
- Antibody titer Mean (Example 2): 2161.0 ng/mL

Sequence: DAEFRHDSGYEVHHQKLVCFFAEDVG [1-18Cys19-25AA, 25-amino acid Aβ peptide wherein cysteine is inserted between residues Nos. 18 and 19]
- Antibody titer Animal No. 1 (Example 7): 1.5 ng/mL
- Antibody titer Animal No. 2 (Example 7): 6.6 ng/mL
- Antibody titer Animal No. 3 (Example 7): 71.4 ng/mL
- Antibody titer Animal No. 4 (Example 7): 1398 ng/mL
- Antibody titer Mean (Example 7): 369.4 ng/mL
- induction of an antibody to Aβ [1]: observed in one of four cases

Sequence: DAEFRHDSGYEVHHQKLVCFFAEDVGSNKC [1-18Cys19-28AACys]
- Antibody titer Animal No. 1 (Example 6): 19908 ng/mL
- Antibody titer Animal No. 2 (Example 6): 361259 ng/mL
- Antibody titer Animal No. 3 (Example 6): 4161 ng/mL
- Antibody titer Animal No. 4 (Example 6): 29412 ng/mL
- Antibody titer Mean (Example 6): 103685.0 ng/mL

Sequence: DAEFRHDSGYKGAIIGLC [1-10•28-34AACys, 1-10+28-34-amino acid Aβ peptide with addition of Cysteine]
- Antibody titer Animal No. 1 (Example 2): 29 ng/mL
- Antibody titer Animal No. 2 (Example 2): 30 ng/mL
- Antibody titer Animal No. 3 (Example 2): 26 ng/mL
- Antibody titer Animal No. 4 (Example 2): 25 ng/mL
- Antibody titer Mean (Example 2): 27.4 ng/mL

Sequence: DAEFRHDSGKGAIIGLMVGC [1-9•28-37AACys, 1-9+28-37-amino acid Aβ peptide with addition of Cysteine]
- Antibody titer Animal No. 1 (Example 3): 398 ng/mL
- Antibody titer Animal No. 2 (Example 3): 249 ng/mL
- Antibody titer Animal No. 3 (Example 3): 2772 ng/mL
- Antibody titer Animal No. 4 (Example 3): 8899 ng/mL
- Antibody titer Mean (Example 3): 3079.5 ng/mL
- induction of an antibody to Aβ (Example 3, result in words on Table 3): observed

Sequence: FRHDSGYKGAIIGLMVGC (added cysteine) [4-10•28-37AACys, 4-10+28-37-amino acid Aβ peptide with addition of Cysteine]
- Antibody titer Animal No. 1 (Example 4): 24 ng/mL
- Antibody titer Animal No. 2 (Example 4): 31 ng/mL
- Antibody titer Animal No. 3 (Example 4): 53 ng/mL
- Antibody titer Animal No. 4 (Example 4): 27 ng/mL
- Antibody titer Mean (Example 4): 33.8 ng/mL
